In US11478451B1, “Macrocyclic chlorine substituted indole derivatives” (Bayer Aktiengesellschaft, priority 2017, dated 2022) one finds ring closure, isolated yield, IC50 and EC50 data, which are given here for 8 compounds.

Where a name gives a salt, the structure may show the parent alone. Read-outs that look alike come from different tables or passages of the source.

The term EC50 denotes the midpoint of the concentration-response curve. A high value points to weaker potency.

The conditions of data set [1]: the molecule shown is the open-chain precursor, crosslinker bond, 11-membered ring, MeCN.
Data set [2] relates to SUDHL5 cells. Nature of the data set: Antiproliferation assay (CellTiter-Glo, 72 h), SUDHL5. Type of data set: cell-based. The note with it: IC50, median; SUDHL5, 72 h; read-out: Antiproli SUDHL5 [M] (median). In short, it runs like this:
(§1)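 Cells plated in treatment plates plus a day 0 reference plate; incubated 72 h at 37 °C; CellTiter-Glo added, 10 min incubation, luminescence read; day 0 plate read at time zero.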
In general terms: Cellular ATP, detected with luciferase, serves as a proxy for viable cell number.

Data set [3] has as its system SUDHL10 cells. The data set can be described thus: Induction of caspase-3/7 activity (Caspase-Glo 3/7), SUDHL10. Particulars: EC50, median, SUDHL10, 3 h treatment. Type of data set: cell-based. In short, it runs like this: (§2)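 Caspase-3/7 activation serves as the apoptosis read-out for MCL-1 inhibition. Cells are treated with compound for 3 h at 37 °C and assayed with Caspase-Glo 3/7; values are corrected by subtracting medium-only background.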

Data set [4] concerns SUDHL10 cells. Nature of the data set: Induction of cytotoxicity (CellTiter-Glo, 5 h), SUDHL10. Particulars: SUDHL10, 5 h.
For data set [5], the system named is SUDHL5 cells. The data set can be described thus: Induction of caspase-3/7 activity (Caspase-Glo 3/7), SUDHL5. The data set is classed as cell-based. Particulars: EC50, median; SUDHL5, 3 h treatment. The method in brief: as §2
Data set [6] relates to SK-BR-3 cells. The data set can be described thus: Antiproliferation assay (CellTiter-Glo, 72 h), SK-BR-3. Particulars: IC50, median; SK-BR-3, 72 h; read-out: Antiproli SK-BR-3 [M] median. The data set is classed as cell-based. The method, then: (§3) Assessment of the Anti-Proliferative Effect of Compounds in Different Cell Lines
(§4) The impact of compounds on the proliferation of different cell lines was assessed using the CellTiter-Glo® Luminescent Cell Viability reagent from Promega (G7573).
(§5) In parallel, cells were plated in a reference (day 0) plate for time zero determination.
(§6) Rim wells were excluded. The cells were incubated for 72 h hours in a humidified incubator at 37° C. The day 0 plate was measured by adding 30 μL/well of CTG solution (CellTiter-Glo® Luminescent Cell Viability reagent, Promega G7573) to time zero wells in the reference plate followed by a 10 minutes incubation and luminescence reading at 0.1 ms. using the PHERAstar FS microplate reader (BMG Labtech).
(§7) After 72 h incubation, the treated plates were measured in the same way as the day 0 plate mentioned above.

Data set [7] relates to MV-4-11 cells. Nature of the data set: Antiproliferation assay (CellTiter-Glo, 72 h), MV-4-11. Type of data set: cell-based. Particulars: IC50, median; MV-4-11, 72 h; read-out: Antiproli MV-4-11 [M] median. How it is done: as §3, §4, §5, §6, §7
Data set [8] has as its system SUDHL5 cells. The data set can be described thus: Induction of cytotoxicity (CellTiter-Glo, 5 h), SUDHL5. The note with it: read-out: Cytotox SUDHL5 [M] (median); IC50, median; SUDHL5, 5 h.
In data set [9] the test system is SUDHL10 cells. The data set can be described thus: Antiproliferation assay (CellTiter-Glo, 72 h), SUDHL10. The data set is classed as cell-based. Particulars: Homo sapiens, SU-DHL10, 72 h, IC50, median; SUDHL10, 72 h; read-out: Antiproli SUDHL10 [M] (median). The method, then: as §3, §4, §5, §6, §7
The subject of data set [10] is AMO-1 cells. The data set can be described thus: Antiproliferation assay (CellTiter-Glo, 72 h), AMO-1. Type of data set: cell-based. The note with it: IC50, median; AMO-1, 72 h; read-out: Antiproli AMO-1 [M] median. The method in brief:
as §1

Data set [11] concerns the target MCL-1 (Homo sapiens (Human), UniProt Q07820, K194A/K197A/R201A). The data set can be described thus: Protein-protein interaction assay MCL-1/Noxa BH3 peptide (MCL-1 assay), TR-FRET. Type of data set: binding. Particulars: IC50, median; MCL-1/Noxa BH3 TR-FRET. How it is done: The dose-dependent inhibition by the compounds described in this invention of the interaction between MCL-1 and the BH3 domain of Noxa (both human) was determined using a steady state binding competition assay with time-resolved fluorescence energy transfer (TR-FRET) readout. […] The MBP-MCL-1 was purchased from Beryllium (Bedford, Mass., USA). The expression and purification of this protein construct has been described elsewhere (DOI:10.1371/journal.pone.0125010). The Noxa BH3-derived peptide can be obtained from e.g. Biosyntan (Berlin, Germany), 50812.1.
For that, 100-fold concentrated DMSO solutions were prepared by serial dilutions (1:3.4) of a 2 mM stock solution in a clear, 384-well microtiter plate (Greiner Bio-One, Frickenhausen, Germany). From there, 50 nl were transferred in a dark test plate (Greiner Bio-One, Frickenhausen, Germany). […] This was followed by a 10-minute incubation step at 22° C. for pre-equilibration of the putative complex between MBP-MCL-1 and the compounds.
The mixture was incubated in the dark for one hour at 22° C. and then overnight at 4° C.
The resulting data (ratio) were normalized, taking 0% inhibition as the mean value of control measurements (usually 32 data points) where all reagents were included. In this case 50 nl DMSO were used instead of compounds. […] IC50 values were determined by regression analysis based on a 4 parameter equation (minimum, maximum, IC50, Hill; Y=Max+(Min−Max)/(1+(X/IC50)^Hill) using the Screener Software (Genedata).

Data set [12] has as its target MCL1 protein (Homo sapiens (Human), UniProt Q07820). The data set can be described thus: PIxEL: protein-protein interaction in permeabilized cells by ELISA (MCL1/biotin-BIM BH3 peptide, RKO cells). The data set is classed as cell-based. The note with it: IC50, median, serum free. How it is done: PIxEL: Protein-Protein Interaction in Permeabilized Cells by ELISA
Most MCL1 protein molecules are localized at the mitochondria outer membrane and sequester pro-apoptotic proteins through binding of their BCL2 homology domain 3 (BH3 domain). MEB buffer (150 mM mannitol, 10 mM HEPES pH 7.5, 50 mM KCl, 20 μM EDTA, 20 μM EGTA, 5 mM potassium succinate, 0.1% protease-free BSA (SIGMA) with low dose digitonin (0.002%) permeabilizes plasma membrane while leaves live mitochondria, where MCL1 maintains its native localization and conformation. Unlike biophysical assays (e.g. TR-FRET) that use truncated recombinant MCL1 protein, this assay uses full length endogenous MCL1 protein at mitochondria outer membrane. It measures the interaction between MCL1 protein and biotinylated BIM BH3 peptide. Compounds can compete with BIM BH3 peptide to bind to MCL1 protein.
On day 1, RKO colon cancer cell line cells were plated at 0.8 million cells/ml, 100 μl/well in 96-well flat bottom TC plates (Corning). MCL1 antibody (Santa Cruz sc-12756) were diluted at 200 fold (final concentration 1 μg/ml) in carbonate buffer (Thermo Fisher Scientific, pH 9.6), and 50 μl of diluted antibody was added to each well of high bind ELISA plates ([…]). Each plate was tapped to make sure liquid covering entire bottom of wells and incubate at 37° C. overnight.
On the second day, MCL1 antibody was washed from ELISA plate. 250 μl Odyssey® Blocking Buffer (PBS) (Li-Cor) was added to each well, incubated at room temperature for at least 1 hour, then washed once with 250 μl 1×PBST. Plates with RKO cells were gently washed once with 100 μl/well PBS, once with 100 μl/well MEB buffer without digitonin, then 100 μl of MEB buffer with 0.002% digitonin was gently added to each well. Compounds were added with HP Tecan compound dispenser in 3-fold dilution series, highest dose 30 μM, 10-dose per compound in quadruplicates. Biotin-BIM peptide (synthesized by 21st Century) was added with HP Tecan compound dispenser at 0.2 μM immediately after the addition of compounds. Plates were rocked for 1 hour at room temperature. Then MEB buffer was aspirated and 50 μl of CHAPS buffer (50 mM Tris-Cl, pH 7.4, 150 mM NaCl, 1% CHAPS, 1 mM EDTA, 1 mM EGTA, cOmplete protease inhibitors (Roche), PhosSTOP (Roche)) was added to each well. Plates were rocked for 1 hour at 4° C., then 45 μl cell lysate from each well were transferred to ELISA plates coated with MCL1 antibody. Plates were incubated overnight in the cold room with rocking.
On the third day, ELISA plates were washed once with 250 μl 1×PBST. Streptavidin-poly-HRP (Thermo Fisher Scientific) was diluted to 20 ng/ml in Odyssey blocking buffer plus 0.05% Triton-100, and 100 μl was added to each well of the ELISA plate. Plates were incubated at RT from 1 hour with rocking, then washed with 100 μL 1×PBST for 3 times. Each SuperSignal ELISA Femto Maximum Sensitivity substrate was added to a 50-ml tube and mixed, then 100 μl of mixed substrate was added to each well. Plates were shaken for 1 minute then luminescence was measured by Envision plate reader […]. Signal of each well were normalized by no-compound control and no-cell control. IC50 was calculated using Graphic Pad PRISM software.

Chain of MCL1 protein (Q07820 whole entry, the tested form may be a part): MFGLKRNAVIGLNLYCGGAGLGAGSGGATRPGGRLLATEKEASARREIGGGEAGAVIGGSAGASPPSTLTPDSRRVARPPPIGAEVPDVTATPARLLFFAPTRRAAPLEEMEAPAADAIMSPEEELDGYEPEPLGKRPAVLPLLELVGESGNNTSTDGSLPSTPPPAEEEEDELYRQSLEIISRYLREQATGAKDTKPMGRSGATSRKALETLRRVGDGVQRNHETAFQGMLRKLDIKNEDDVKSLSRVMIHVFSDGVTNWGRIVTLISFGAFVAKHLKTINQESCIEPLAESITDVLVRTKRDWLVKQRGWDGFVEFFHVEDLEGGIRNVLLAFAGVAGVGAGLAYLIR
Chain of MCL-1 (Q07820 whole entry K194A/K197A/R201A, looked up, the tested form may be a part): as the sequence (Q07820 whole entry, the tested form may be a part) above, with K194A, K197A, R201A counted along it

`CCOC(=O)c1[nH]c2c(-c3c(CO)nn(C)c3C)c(Cl)ccc2c1CCCOc1cccc2ccccc12` had a ring closure, isolated yield in [1] ((Z)-1,4-dichlorobut-2-ene/Cs2CO3/NaI, […], 70.0 °C) of 71%.
In the case of `CCOC(=O)c1[nH]c2c(-c3c(CO)nn(C)c3CC)c(Cl)ccc2c1CCCOc1cccc2cc(F)ccc12`, the ring closure, isolated yield in data set [1] ((Z)-1,4-dichlorobut-2-ene/Cs2CO3/NaI, 77.0 mM, […]) amounted to 82%.
In data set [1] ((Z)-1,4-dichlorobut-2-ene/Cs2CO3, […]), `CCOC(=O)c1[nH]c2c(-c3c(CC)nn(CCN4CCOCC4)c3CNC)c(Cl)ccc2c1CCCOc1cccc2ccccc12` had a ring closure, isolated yield of 45%.
With `CCOC(=O)c1[nH]c2c(-c3c(CC)nn(C)c3CO)c(Cl)ccc2c1CCCOc1cccc2cc(F)ccc12`, in [1] ((Z)-1,4-dichlorobut-2-ene/Cs2CO3/NaI, […]), the ring closure, isolated yield stood at 84%.
`CCOC(=O)c1[nH]c2c(-c3c(CO)nn(CCCO[Si](C)(C)C(C)(C)C)c3C)c(Cl)ccc2c1CCCOc1cccc2ccccc12` gave a ring closure, isolated yield in data set [1] ((Z)-1,4-dichlorobut-2-ene/Cs2CO3/NaI, 31.9 mM, 70.0 °C) of 68%.
`CCc1nn(CCN2CCOCC2)c2c1-c1c(Cl)ccc3c(CCCOc4cccc5ccccc45)c(C(=O)O)n(c13)CCCCOC2` (racemic) [Example 8, (rac)-4-chloro-3-ethyl-1-[2-(morpholin-4-yl)ethyl]-7-[3-(naphthalen-1-yloxy)propyl]-1,10,11,12,13,15-hexahydropyrazolo[4′,3′:9,10][1,6]oxazacycloundecino[8,7,6-hi]indole-8-carboxylic acid]: the IC50 in [2] came to 4.7e-07 M; in data set [4] (Homo sapiens, SU-DHL10, 5 h, read-out: Cytotox SUDHL10 [M] (median), IC50, median), 4.5e-07 M; in data set [6] it was 3e-06 M; in data set [7], 1.1e-06 M; in data set [8], 3.5e-07 M. Besides, the EC50 in [3] (Homo sapiens, SU-DHL10, 3 h) came to 360 nM; in data set [5], 290 nM.
Take `CCc1nn(CCN2CCOCC2)c2c1-c1c(Cl)ccc3c(CCCOc4cccc5ccccc45)c(C(=O)O)n(c13)CCCCOC2` (single isomer, unassigned; enantiomer 1) [Example 9, 4-chloro-3-ethyl-1-[2-(morpholin-4-yl)ethyl]-7-[3-(naphthalen-1-yloxy)propyl]-1,10,11,12,13,15-hexahydropyrazolo[4′,3′:9,10][1,6]oxazacycloundecino[8,7,6-hi]indole-8-carboxylic acid-N-ethylethanamine salt (Enantiomer 1)]: the IC50 in data set [2] was 3.7e-07 M; in [9], 2.7e-07 M; in [4] (read-out: Cytotox SUDHL10 [M] (median), IC50, median), 3.4e-07 M; in data set [10] it was 8.7e-07 M; in [6] it was 1.08e-06 M; in data set [7], 8.23e-07 M. Further, the IC50 in data set [8] was found to be 2.9e-07 M. In addition, the EC50 was found to be 330 nM in data set [3] and 270 nM in data set [5].
With `Cc1c2c(nn1C)CN(C)CCCCn1c(C(=O)O)c(CCCOc3cccc4cc(F)ccc34)c3ccc(Cl)c-2c31` (single isomer, unassigned; enantiomer 2) [Example 32, (−)-4-chloro-7-{3-[(6-fluoronaphthalen-1-yl)oxy]propyl}-2,3,14-trimethyl-10,11,12,13,14,15-hexahydro-2H-pyrazolo[3′,4′:8,9][1,6]diazacycloundecino[10,11,1-hi]indole-8-carboxylic acid-N-ethylethanamine salt (Enantiomer 2)], the IC50 turned out to be 6e-06 M in [2]; 26 nM in [11]; 1.4e-05 M in [7]; 19100 nM in [12]; 9.3e-06 M in data set [8].
